Converted amounts (≈) assume the structure as drawn. Read-outs that look alike come from different tables or passages of the source.
Experiments:
[1] = tested on: human breast adenocarcinoma MCF7 cells; assay: Growth inhibition test (MTS); format: cell-based; details: MCF-7; 72 hours
Procedure: (§1) Two thousand cells of human breast adenocarcinoma MCF7 were inoculated into each well of a 96-well microplate (manufactured by Corning Corp.), and using DMEM medium (culture medium) containing 10% fetal calf serum (FCS). The same day, a dimethyl sulfoxide (DMSO) solution of each test compound prepared in a concentration of 10 mmol/L was further diluted with DMSO to the desired concentrations (0.1, 0.5, 1, 2.5, 5 and 10 micromol/L), and the diluted solution was added to each well. The individual wells were further cultured in 5% carbon dioxide at 37° C. for 72 hours. After completion of the culture, 10 μl MTS (3-(4,5-Dimethyl-2-thiazolyl)-5-(carboxymethoxyphenyl)-2-(4-sulfophenyl)-2H-tetrazolium, inner salt assay (CellTiter96® AQueous One Solution Cell Proliferation Assay, Promega) was added to each well, and culturing was performed in 5% carbon dioxide at 37° C. for 2 hours. Using a microplate spectrophotometer (Synergy 2 multi-mode microplate reader (BioTek)), the absorbance of each well was measured at 490 nm. The value for cells not incorporated with a test compound was designated as 100%. By comparing these values with the absorbance difference obtained at the well in which each test compound was added, the cell viability (% viability) after treatment with the test compound was calculated.

Solubility in pH 7.4 = details: phosphate buffer
CLK1 = CLK1 (Homo sapiens, UniProt P49759); assay: Radiometric kinase assay (HotSpot)
Chain of CLK1 (P49759 whole entry): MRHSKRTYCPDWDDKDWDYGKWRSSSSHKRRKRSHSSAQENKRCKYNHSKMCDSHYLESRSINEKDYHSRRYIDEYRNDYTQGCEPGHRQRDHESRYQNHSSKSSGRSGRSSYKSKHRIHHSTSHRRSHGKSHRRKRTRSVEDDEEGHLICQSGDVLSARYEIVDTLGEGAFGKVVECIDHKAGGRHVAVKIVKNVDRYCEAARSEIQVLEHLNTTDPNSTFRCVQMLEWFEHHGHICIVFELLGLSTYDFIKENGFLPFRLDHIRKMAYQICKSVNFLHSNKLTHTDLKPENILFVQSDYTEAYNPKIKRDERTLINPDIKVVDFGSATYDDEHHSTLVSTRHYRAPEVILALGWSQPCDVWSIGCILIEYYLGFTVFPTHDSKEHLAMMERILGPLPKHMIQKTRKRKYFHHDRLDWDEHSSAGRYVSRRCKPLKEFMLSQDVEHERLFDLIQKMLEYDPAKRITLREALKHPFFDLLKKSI

neoplastic cell lines = assay: MTS cytotoxicity, panel of cancer cell lines; format: cell-based, human; details: majority of the tested cancer cell lines; read-out: general cytotoxic activity (compound concentration that results in death of 50% of the cell)
Procedure: as §1, with “Ten” for “Two”, “chronic myelocytic leukemia K562” for “breast adenocarcinoma MCF7”, “Corp.)” for “Corp.), and”, “Iscove's MDM” for “DMEM”
as §1, with “prostate” for “breast”, “PC3” for “MCF7”, “F12K (Ham's F12:[…] 1:1)” for “DMEM”, “The same day, a dimethyl sulfoxide (DMSO) solution of each test compound prepared in a concentration of 10 mmol/L was further diluted with DMSO to the desired concentrations (0.1, 0.5, 1, 2.5, 5 and 10 micromol/L), and the diluted solution was added to each well. The individual wells were further cultured in 5% carbon dioxide at 37° C. for 72 hours.” left out
as §1, with “prostate carcinoma DU145” for “breast adenocarcinoma MCF7”, “The same day, a dimethyl sulfoxide (DMSO) solution of each test compound prepared in a concentration of 10 mmol/L was further diluted with DMSO to the desired concentrations (0.1, 0.5, 1, 2.5, 5 and 10 micromol/L), and the diluted solution was added to each well. The individual wells were further cultured in 5% carbon dioxide at 37° C. for 72 hours.” left out, “innersalt” for “inner salt”, “calculated. […]” for “calculated.”

[2] = tested on: EGFR(L747-S572del. P573S); assay: KINOMEscan Max; format: binding, human; details: 1 μM
Procedure: (§2) Kinase panel profiling was performed at Ambit Kinomescan (http://www.ambitbio.com/technology/) using the “KINOMEscan™ Max” assay platform, a high-throughput method for screening small molecule compounds against large numbers of human kinases. KINOMEscan™ is based on a competition binding assay that quantitatively measures the ability of a compound to compete with an immobilized, active-site directed ligand. The assay is performed by combining three components: DNA-tagged kinase; immobilized ligand; and a test compound. The ability of the test compound to compete with the immobilized ligand is measured via quantitative PCR of the DNA tag. For a description of Ambit's assay protocol, see Fabian et al. A small molecule-kinase interaction map for clinical kinase inhibitors. Nat. Biotechnol. 23, 329-336 (2005).

FLT3(ITD) = assay: KINOMEscan Max; format: binding, human; details: 1 μM
Procedure: as §2

ISR1 = assay: KINOMEscan Max; format: binding, human; details: 1 μM
Procedure: as §2

EGFR(S572-I759del) = assay: KINOMEscan Max; format: binding, human; details: 1 μM
Procedure: as §2

solubility at 24 h (Solubility in pH 7.4) [µM] | SMILES | Cytotoxicity in MTS assay (ED50) [1] [µM] | EC50 (neoplastic cell lines) [µM] | other results
< 10 | CN1CCN(c2nc3c(Br)c(Br)c(Br)c(Br)c3[nH]2)CC1 [Compound 21, 4,5,6,7-tetrabromo-2-(4-methylpiperazin-1-yl)-1H-benzo[d]imidazole] | >10 | – | –
– | CN(C)c1nc2c(Br)c(Br)c(Br)c(Br)c2[nH]1 [DMAT, reference compound] | >10 | > 10 | Solubility [mM] in phosphate buffer pH 7.4: <0.01 mM; IC50 (CLK1; read-out: Inhibitory activity (IC50 in nM) in radiometric cell free assay, CLK1, ATP 1 μM, Myelin Basic Protein 10 μM): 211 nM
31 (≈ 16.9 µg/mL) | Brc1c(Br)c(Br)c2[nH]c(NCCN3CCCC3)nc2c1Br [Compound 14, 4,5,6,7-tetrabromo-N-(2-(pyrrolidin-1-yl)ethyl)-1H-benzo[d]imidazol-2-amine] | – | – | –
– | Brc1c(Br)c(Br)c2[nH]nnc2c1Br [TBB, reference compound] | – | > 10 | –
– | Brc1c(Br)c(Br)c2c(Br)n[nH]c2c1Br [Compound K64, reference compound] | – | > 10 | –
– | Brc1c(Br)c(Br)c2[nH]c(NCCN3CCCCC3)nc2c1Br [Compound 13, 4,5,6,7-tetrabromo-N-(2-(piperidin-1-yl)ethyl)-1H-benzo[d]imidazol-2-amine] | – | – | IC50 (CLK1): 594 nM
23 (≈ 12.9 µg/mL) | Brc1c(Br)c(Br)c2[nH]c(NCCN3CCOCC3)nc2c1Br [Compound 16, 4,5,6,7-tetrabromo-N-(2-morpholinoethyl)-1H-benzo[d]imidazol-2-amine] | >10 | – | –
– | CN(C)c1nc2c(Br)c(Br)c(Br)c(Br)c2n1CC(=O)O [Compound K66, reference compound] | – | > 10 | –
– | Brc1c(Br)c(Br)c2[nH]cnc2c1Br [TBI, reference compound] | – | > 10 | –

SMILES | solubility at 24 h (Solubility in pH 7.4) [µM] | Cytotoxicity in MTS assay (ED50) [1] [µM] | EC50 (neoplastic cell lines) [µM] | other results
NCCCNc1nc2c(Br)c(Br)c(Br)c(Br)c2[nH]1 [Compound 11, N-(3-aminopropyl)-4,5,6,7-tetrabromo-1H-benzo[d]imidazol-2-amine] | 370 (≈ 187 µg/mL) | 5.34 | – | % binding [2]: 86%; % binding (FLT3(ITD)): 35%; % binding (ISR1): 81%; % binding (EGFR(S572-I759del)): 99%; IC50 (CLK1): 177 nM
